Experimental data taken from ChEMBL document CHEMBL1201862, “PubChem BioAssay data set” (2004).
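Following 48 hours of exposure in 96-well plates, responses at five concentrations were used to interpolate endpoints linearly. The concentration for 50% growth inhibition is given as GI50.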 The source made the active and inactive calls. No stated cut-off is given here; in the data, active = GI50 up to about 1.1 µM and inactive = higher.

Assays:
Assay in all cases: growth of human tumour cells (NCI), 48 h
A498 = tested on: A498
T47D = tested on: T47D
UACC-257 = tested on: UACC-257
OVCAR-8 = tested on: OVCAR-8
HT-29 = tested on: HT-29
OVCAR-3 = tested on: OVCAR-3
SK-MEL-2 = tested on: SK-MEL-2
BT-549 = tested on: BT-549
K562 = tested on: K562
NCI-H460 = tested on: NCI-H460
SN12C = tested on: SN12C
COLO 205 = tested on: COLO 205
HOP-62 = tested on: HOP-62
UO-31 = tested on: UO-31
SK-MEL-5 = tested on: SK-MEL-5
A549 = tested on: A549
SNB-75 = tested on: SNB-75
Malme-3M = tested on: Malme-3M
SF-268 = tested on: SF-268
HCC 2998 = tested on: HCC 2998

Structure (SMILES): O=c1c2ccccc2sc2c(CO)ccc(NCCN3CCCCC3)c12
- GI50 (A498): 3.15 µM (inactive)
- GI50 (T47D): 5.25 µM (inactive)
- GI50 (UACC-257): 2.07 µM (inactive)
- GI50 (OVCAR-8): 3.56 µM (inactive)
- GI50 (HT-29): 2.94 µM (inactive)
- GI50 (OVCAR-3): 2.22 µM (inactive)
- GI50 (SK-MEL-2): 4.47 µM (inactive)
- GI50 (BT-549): 10.8 µM (inactive)
- GI50 (K562): 2 µM (inactive)
- GI50 (NCI-H460): 2.68 µM (inactive)
- GI50 (SN12C): 3.27 µM (inactive)
- GI50 (COLO 205): 1.92 µM (inactive)
- GI50 (HOP-62): 3.24 µM (inactive)
- GI50 (UO-31): 1.88 µM (inactive)
- GI50 (SK-MEL-5): 1.69 µM (inactive)
- GI50 (A549): 3.46 µM (inactive)
- GI50 (SNB-75): 5.77 µM (inactive)
- GI50 (Malme-3M): 2.24 µM (inactive)
- GI50 (SF-268): 3.32 µM (inactive)

Structure (SMILES): Nc1nnnn1CCO
- GI50 (A498): > 100 µM (inactive)
- GI50 (T47D): > 100 µM (inactive)
- GI50 (UACC-257): > 100 µM (inactive)
- GI50 (OVCAR-8): > 100 µM (inactive)
- GI50 (HT-29): > 100 µM (inactive)
- GI50 (OVCAR-3): > 100 µM (inactive)
- GI50 (SK-MEL-2): > 100 µM (inactive)
- GI50 (BT-549): > 100 µM (inactive)
- GI50 (K562): > 100 µM (inactive)
- GI50 (NCI-H460): > 100 µM (inactive)
- GI50 (SN12C): > 100 µM (inactive)
- GI50 (COLO 205): > 100 µM (inactive)
- GI50 (HOP-62): > 100 µM (inactive)
- GI50 (UO-31): > 100 µM (inactive)
- GI50 (SK-MEL-5): > 100 µM (inactive)
- GI50 (A549): > 100 µM (inactive)
- GI50 (SNB-75): > 100 µM (inactive)
- GI50 (Malme-3M): > 100 µM (inactive)
- GI50 (SF-268): > 100 µM (inactive)

Structure (SMILES): O=C1NC(=O)C2(CCCCCC2)N1
- GI50 (A498): > 100 µM (inactive)
- GI50 (T47D): > 100 µM (inactive)
- GI50 (UACC-257): > 100 µM (inactive)
- GI50 (OVCAR-8): > 100 µM (inactive)
- GI50 (HT-29): > 100 µM (inactive)
- GI50 (OVCAR-3): > 100 µM (inactive)
- GI50 (SK-MEL-2): > 100 µM (inactive)
- GI50 (BT-549): > 100 µM (inactive)
- GI50 (K562): > 100 µM (inactive)
- GI50 (NCI-H460): > 100 µM (inactive)
- GI50 (SN12C): > 100 µM (inactive)
- GI50 (COLO 205): > 100 µM (inactive)
- GI50 (HOP-62): > 100 µM (inactive)
- GI50 (UO-31): > 100 µM (inactive)
- GI50 (SK-MEL-5): > 100 µM (inactive)
- GI50 (A549): > 100 µM (inactive)
- GI50 (SNB-75): > 100 µM (inactive)
- GI50 (Malme-3M): > 100 µM (inactive)
- GI50 (SF-268): > 100 µM (inactive)

Structure (SMILES): COc1ccc(OC)c(/C=C/c2ccnc3ccccc23)c1
- GI50 (A498): 0.452 µM (active)
- GI50 (HCC 2998): 1.24 µM (inactive)
- GI50 (T47D): 1.63 µM (inactive)
- GI50 (UACC-257): 0.513 µM (active)
- GI50 (OVCAR-8): 0.191 µM (active)
- GI50 (HT-29): 0.321 µM (active)
- GI50 (OVCAR-3): 0.269 µM (active)
- GI50 (BT-549): 0.568 µM (active)
- GI50 (K562): 0.191 µM (active)
- GI50 (NCI-H460): 0.371 µM (active)
- GI50 (SN12C): 0.619 µM (active)
- GI50 (COLO 205): 0.277 µM (active)
- GI50 (HOP-62): 0.45 µM (active)
- GI50 (UO-31): 0.458 µM (active)
- GI50 (SK-MEL-5): 0.272 µM (active)
- GI50 (A549): 0.735 µM (active)
- GI50 (Malme-3M): 2.07 µM (inactive)
- GI50 (SF-268): 0.647 µM (active)

Structure (SMILES): CC1N(C)C(=O)OC12CCN(CCCC(=O)c1ccc(F)cc1)CC2 (centres undefined)
- GI50 (A498): > 100 µM (inactive)
- GI50 (T47D): > 100 µM (inactive)
- GI50 (UACC-257): > 100 µM (inactive)
- GI50 (OVCAR-8): > 100 µM (inactive)
- GI50 (HT-29): > 100 µM (inactive)
- GI50 (OVCAR-3): > 100 µM (inactive)
- GI50 (SK-MEL-2): > 100 µM (inactive)
- GI50 (BT-549): > 100 µM (inactive)
- GI50 (K562): > 100 µM (inactive)
- GI50 (NCI-H460): > 100 µM (inactive)
- GI50 (SN12C): > 100 µM (inactive)
- GI50 (COLO 205): > 100 µM (inactive)
- GI50 (HOP-62): > 100 µM (inactive)
- GI50 (UO-31): > 100 µM (inactive)
- GI50 (SK-MEL-5): > 100 µM (inactive)
- GI50 (A549): > 100 µM (inactive)
- GI50 (SNB-75): > 100 µM (inactive)
- GI50 (Malme-3M): > 100 µM (inactive)
- GI50 (SF-268): > 100 µM (inactive)

Structure (SMILES): CC1(C)Cc2ccccc2C(C)(Cl)C(=O)N1 (centres undefined)
- GI50 (A498): > 10 µM (inactive)
- GI50 (HCC 2998): > 10 µM (inactive)
- GI50 (T47D): > 10 µM (inactive)
- GI50 (UACC-257): > 10 µM (inactive)
- GI50 (OVCAR-8): > 10 µM (inactive)
- GI50 (HT-29): > 10 µM (inactive)
- GI50 (OVCAR-3): > 10 µM (inactive)
- GI50 (BT-549): > 10 µM (inactive)
- GI50 (K562): > 10 µM (inactive)
- GI50 (NCI-H460): > 10 µM (inactive)
- GI50 (SN12C): > 10 µM (inactive)
- GI50 (COLO 205): > 10 µM (inactive)
- GI50 (HOP-62): > 10 µM (inactive)
- GI50 (UO-31): > 10 µM (inactive)
- GI50 (A549): > 10 µM (inactive)
- GI50 (Malme-3M): > 10 µM (inactive)
- GI50 (SF-268): > 10 µM (inactive)

Structure (SMILES): COc1ccc(Oc2nc3c(N)cc(C(F)(F)F)cc3nc2-c2ccccc2)cc1
- GI50 (A498): 28.2 µM (inactive)
- GI50 (HCC 2998): 38.8 µM (inactive)
- GI50 (T47D): 8.04 µM (inactive)
- GI50 (UACC-257): 39.2 µM (inactive)
- GI50 (OVCAR-8): 26.9 µM (inactive)
- GI50 (HT-29): 10.8 µM (inactive)
- GI50 (SK-MEL-2): 12.2 µM (inactive)
- GI50 (BT-549): 47.1 µM (inactive)
- GI50 (K562): > 100 µM (inactive)
- GI50 (NCI-H460): 21.8 µM (inactive)
- GI50 (COLO 205): 12.8 µM (inactive)
- GI50 (HOP-62): 22.8 µM (inactive)
- GI50 (UO-31): 60.8 µM (inactive)
- GI50 (SK-MEL-5): 29.9 µM (inactive)
- GI50 (SNB-75): 17.7 µM (inactive)
- GI50 (SF-268): 20.6 µM (inactive)

Structure (SMILES): Cc1nn(C(=O)Cc2ccccc2)c2c1C(c1ccc(N(C)C)cc1)SC(=N)N2 (centres undefined)
- GI50 (A498): > 100 µM (inactive)
- GI50 (HCC 2998): > 100 µM (inactive)
- GI50 (T47D): > 100 µM (inactive)
- GI50 (UACC-257): > 100 µM (inactive)
- GI50 (OVCAR-8): > 100 µM (inactive)
- GI50 (HT-29): > 100 µM (inactive)
- GI50 (BT-549): 51.5 µM (inactive)
- GI50 (NCI-H460): > 100 µM (inactive)
- GI50 (SN12C): > 100 µM (inactive)
- GI50 (COLO 205): > 100 µM (inactive)
- GI50 (HOP-62): 38.3 µM (inactive)
- GI50 (UO-31): > 100 µM (inactive)
- GI50 (SK-MEL-5): > 100 µM (inactive)
- GI50 (A549): > 100 µM (inactive)
- GI50 (SNB-75): 12.4 µM (inactive)
- GI50 (Malme-3M): > 100 µM (inactive)
- GI50 (SF-268): > 100 µM (inactive)

Structure (SMILES): NC(c1ccccc1)(C(F)(F)F)P1(=O)OC(=O)c2ccccc2O1 (centres undefined)
- GI50 (A498): 84.1 µM (inactive)
- GI50 (HCC 2998): > 100 µM (inactive)
- GI50 (T47D): > 100 µM (inactive)
- GI50 (UACC-257): > 100 µM (inactive)
- GI50 (OVCAR-8): > 100 µM (inactive)
- GI50 (HT-29): > 100 µM (inactive)
- GI50 (OVCAR-3): > 100 µM (inactive)
- GI50 (SK-MEL-2): > 100 µM (inactive)
- GI50 (BT-549): > 100 µM (inactive)
- GI50 (K562): > 100 µM (inactive)
- GI50 (NCI-H460): > 100 µM (inactive)
- GI50 (SN12C): > 100 µM (inactive)
- GI50 (COLO 205): > 100 µM (inactive)
- GI50 (HOP-62): > 100 µM (inactive)
- GI50 (UO-31): > 100 µM (inactive)
- GI50 (SK-MEL-5): 8.07 µM (inactive)
- GI50 (A549): > 100 µM (inactive)
- GI50 (SNB-75): > 100 µM (inactive)
- GI50 (SF-268): > 100 µM (inactive)

Structure (SMILES): CC(C(=O)N1C(=O)N(C(=O)[C@H](C)C(O)c2ccccc2)[C@H](c2ccccc2)[C@H]1c1ccccc1)[C@@H](O)c1ccccc1 (some centres undefined)
- GI50 (A498): 24.3 µM (inactive)
- GI50 (HCC 2998): 36.7 µM (inactive)
- GI50 (T47D): 68.9 µM (inactive)
- GI50 (UACC-257): 28.4 µM (inactive)
- GI50 (OVCAR-8): 25.1 µM (inactive)
- GI50 (HT-29): 36.6 µM (inactive)
- GI50 (SK-MEL-2): 16.9 µM (inactive)
- GI50 (BT-549): 6.04 µM (inactive)
- GI50 (K562): 17.5 µM (inactive)
- GI50 (NCI-H460): 22.4 µM (inactive)
- GI50 (SN12C): 38.8 µM (inactive)
- GI50 (COLO 205): 18.7 µM (inactive)
- GI50 (HOP-62): 37.1 µM (inactive)
- GI50 (UO-31): 31.5 µM (inactive)
- GI50 (SK-MEL-5): 14.9 µM (inactive)
- GI50 (A549): 33 µM (inactive)
- GI50 (SNB-75): 28 µM (inactive)
- GI50 (SF-268): 38.2 µM (inactive)

Structure (SMILES): CN(C)CCOC(=O)c1ccc(N)cc1
- GI50 (A498): 38.4 µM (inactive)
- GI50 (HCC 2998): 16 µM (inactive)
- GI50 (T47D): 58.5 µM (inactive)
- GI50 (UACC-257): 19.4 µM (inactive)
- GI50 (OVCAR-8): 70.8 µM (inactive)
- GI50 (HT-29): 27 µM (inactive)
- GI50 (OVCAR-3): 45.2 µM (inactive)
- GI50 (BT-549): 51.1 µM (inactive)
- GI50 (K562): 30 µM (inactive)
- GI50 (NCI-H460): 31.8 µM (inactive)
- GI50 (SN12C): 48.2 µM (inactive)
- GI50 (COLO 205): 67.3 µM (inactive)
- GI50 (HOP-62): > 100 µM (inactive)
- GI50 (UO-31): 33.8 µM (inactive)
- GI50 (SK-MEL-5): 25.6 µM (inactive)
- GI50 (A549): 52.4 µM (inactive)
- GI50 (Malme-3M): 49.8 µM (inactive)
- GI50 (SF-268): 41.6 µM (inactive)
